We go through 39 molecules from US9284283B2, “Macrocyclic compounds for modulating IL-17” (ENSEMBLE THERAPEUTICS CORPORATION, priority 2012, dated 2016).

The target of this assay is T1, biotinylated human IL-17 (binding to IL17R/Fc) (Homo sapiens, UniProt Q16552).
T1 construct: purchased R&D Systems 317-ILB (IL-17, biotinylated); 177-IR (IL17R/Fc)
T1 sequence (Q16552 20-155 limits assumed): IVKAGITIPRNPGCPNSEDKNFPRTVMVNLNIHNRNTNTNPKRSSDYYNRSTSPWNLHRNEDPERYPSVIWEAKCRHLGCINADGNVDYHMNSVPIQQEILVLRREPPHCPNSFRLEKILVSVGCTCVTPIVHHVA
Description: IL-17 competition ELISA II (captured IL17R/Fc, biotinylated IL-17). As to the method:
In this version, a high binding 96-well plate (Costar #9018) was coated with 20 nM of goat anti-human IgG (KPL 01-10-02) in PBS, 100 μL/well, for 30 min at 37° C. followed by 5 min at 4° C. The plate was then washed in PBST (PBS/0.05% Tween-20) on a plate washer, (BioTek ELx450) then blocked with protein-free blocking buffer (Thermo Scientific #37573) in 250 μL/well for 30 min on a shaker at room temperature, and then washed again. IL17R/Fc (R&D Systems #177-IR; 10 nM in PBST, 100 μL/well) was then added to all wells. The plate was then incubated for 30 minutes at room temperature on the shaker.
While the receptor capture step was underway, compound dilutions were prepared in PBST to a concentration of 1 μM in 1.5 mL tubes. After the receptor capture step, the plate was washed and 50 μL PBST was added to the wells in row B down to row H. Then, 62.5 μL of the 1 μM compound dilutions were added to the wells of row A. From row A, 12.5 μL of the compound solution was removed and added to row B with mixing and this process of 5-fold dilutions was continued, by row, to row G. One of the wells in row A received only PBST (62.5 μL) and this dilution series served as the no competitor control. Then, going up from row G to row A, 50 μL of b-IL-17 (biotinylated human IL-17, R&D Systems #317-ILB; 20 nM) was added to all wells. Row H received 50 μL of PBST and served as the blank row, i.e., no compound and no b-IL-17. The plate was then incubated for 30 minutes at room temperature on the shaker.
After the wash, 100 μL Streptavidin-Horseradish Peroxidase (SA-HRP) (KPL #14-30-00) at 25 ng/mL in PBST was added to each well in the plate and the plate incubated for 30 minutes at room temperature followed by wash and 100 μL SureBlue™ TMB (KPL #52-00-03). After sufficient color development (approx 3-6 minutes), the reaction was fixed by the addition of 100 μL/well 0.5 N HCl and absorbance was measured at 450 nm on a BioTek Synergy 2 plate reader. The absorbances of ‘no competitor’ control and blank control should not exceed 1.5 A.U. and 0.06 A.U., respectively.
Data was processed using BioAssay Enterprise v10.1.4 (CambridgeSoft) software. Linear OD λ450 were plotted against log concentration (x) and fitted to a 4-parameter logistic equation. IC50 was calculated using positive ‘no competitor’ control data as an upper limit and blank control as a lower limit in each assay.
(An ELISA detects its analyte on a solid surface through an enzyme-linked reagent.)
Regarding `O=C1CC2(CCCC2)CC(=O)N[C@H](Cc2ccc(NC(=O)[C@H](Cc3ccccc3Cl)NC(=O)Cc3ccccc3)cc2)C(=O)NC/C=C/CCCCCN1` [Compound 283], the IC50 (usually the concentration at which inhibition is half-maximal) is 100 to 1000 nM. On to `O=C1CC2(CCCC2)CC(=O)N[C@H](Cc2ccc(NC(=O)[C@@H](NC(=O)Cc3ccccc3)C3CCCCC3)cc2)C(=O)NCCCCCCCCCN1` [Compound 350], for which the half-maximal inhibitory concentration (IC50) fell in the range of 100 to 1000 nM. Next, `CN1CCCCCNC(=O)CC2(CCCC2)CC(=O)N(C)[C@H](Cc2ccc(N(C)C(=O)[C@H](Cc3ccccc3Cl)N(C)C(=O)Cc3ccccc3)cc2)C(=O)N(C)CC1=O` [Compound 363]: 100 to 1000 nM; `O=C1CC2(CCCC2)CC(=O)N[C@H](Cc2ccc(NC(=O)[C@H](Cc3ccccc3Cl)NC(=O)Cc3ccc(CO)cc3)cc2)C(=O)NC/C=C/CCCCCN1` [Compound 365]: below 100 nM. Take `O=C1CC2(CCCC2)CC(=O)N[C@H](Cc2ccc(NC(=O)[C@H](Cc3ccccc3Cl)NC(=O)c3ccccc3)cc2)C(=O)NCCCCCCCCN1` [Compound 366]: the concentration for half-maximal inhibition (IC50) lay in the range of 100 to 1000 nM. Next, `CN1CCNC(=O)CC2(CCCC2)CC(=O)N(C)[C@H](Cc2ccc(NC(=O)[C@H](Cc3ccccc3)N(C)C(=O)c3ccccc3)cc2)C(=O)N2CCC[C@H]2C(=O)NCC1` [Compound 371]: 1000 to 10000 nM; `CN1CCCCCNC(=O)[C@@H]2CCCN2C(=O)[C@@H](Cc2ccc(NC(=O)[C@H](Cc3ccccc3)N(C)C(=O)c3ccccc3)cc2)N(C)C(=O)CC2(CCCC2)CC1=O` [Compound 383]: 1000 to 10000 nM; `CN1CCCCCN(C)C(=O)CC2(CCCC2)CC(=O)N[C@H](Cc2ccc(NC(=O)[C@H](Cc3ccccc3Cl)NC(=O)Cc3ccccc3)cc2)C(=O)NCC1=O` [Compound 387]: below 100 nM. For `O=C1CC2(CCCC2)CC(=O)N[C@H](Cc2ccc(NC(=O)[C@H](Cc3ccccc3Cl)NC(=O)Cc3ccccc3)cc2)C(=O)NCCCCN1` [Compound 391], the IC50 was below 100 nM. Next, `O=C1CC2(CCCC2)CC(=O)N[C@H](Cc2ccc(NC(=O)[C@H](Cc3ccccc3Cl)NC(=O)Cc3ccccc3)cc2)C(=O)NCCCCCN1` [Compound 392]: below 100 nM.

In the case of `O=C1CC2(CCCC2)CC(=O)N[C@H](Cc2ccc(NC(=O)[C@H](Cc3ccccc3Cl)NC(=O)Cc3ccc(CO)cc3)cc2)C(=O)NCCCCN1` [Compound 393], the IC50 is below 100 nM. With `O=C1CC2(CCCC2)CC(=O)N[C@H](Cc2ccc(NC(=O)[C@H](Cc3ccccc3Cl)NC(=O)Cc3ccc(CO)cc3)cc2)C(=O)NCCCCCN1` [Compound 394], the IC50 is below 100 nM. For the molecule `O=C1CNC(=O)[C@@H](Cc2ccc(NC(=O)[C@@H](NC(=O)CC3CCCCC3)C3CCCCC3)cc2)NC(=O)CC2(CCCC2)CC(=O)NCCCCCN1` [Compound 395], the half-maximal inhibitory concentration (IC50) was below 100 nM. As for `O=C1CNC(=O)[C@@H](Cc2ccc(NC(=O)[C@@H](NC(=O)c3ccc(Cl)cc3)C3CCCCC3)cc2)NC(=O)CC2(CCCC2)CC(=O)NCCCCCN1` [Compound 396], the half-inhibitory concentration (IC50) was below 100 nM.

For the molecule `O=C1CC2(CCCC2)CC(=O)N[C@H](Cc2ccc(NC(=O)[C@H](Cc3ccccc3Cl)NC(=O)Cc3ccccc3)cc2)C(=O)NCCOCCN1` [Compound 397], the 50% inhibitory concentration (IC50) is below 100 nM.

With `O=C1CC2(CCCC2)CC(=O)N[C@H](Cc2ccc(NC(=O)[C@H](Cc3ccccc3Cl)NC(=O)Cc3ccccc3)cc2)C(=O)NCCCN1` [Compound 398], the IC50 is below 100 nM. Consider `O=C1CC2(CCCC2)CC(=O)N[C@H](Cc2ccc(NC(=O)[C@H](Cc3ccccc3Cl)NC(=O)Cc3ccc(CO)cc3)cc2)C(=O)NCCOCCN1` [Compound 400], for which the IC50 was below 100 nM. On to `O=C1CC2(CCCC2)CC(=O)N[C@H](Cc2ccc(NC(=O)[C@H](Cc3ccccc3Cl)NC(=O)Cc3ccc(CO)cc3)cc2)C(=O)NCCCN1` [Compound 401], for which the half-inhibitory concentration (IC50) is below 100 nM. As for `CN1CCNC(=O)CC2(CCCC2)CC(=O)N[C@H](Cc2ccc(NC(=O)[C@H](Cc3ccccc3Cl)NC(=O)Cc3ccc(CO)cc3)cc2)C(=O)NCC1` [Compound 402], the figure is below 100 nM. `O=C1CNC(=O)[C@@H](Cc2ccc(NC(=O)[C@@H](NC(=O)c3ccc(F)cc3)C3CCCCC3)cc2)NC(=O)CC2(CCCC2)CC(=O)NCCCCCN1` [Compound 403]: the half-maximal inhibitory concentration (IC50) was below 100 nM. In the case of `O=C1CNC(=O)[C@@H](Cc2ccc(NC(=O)[C@@H](NC(=O)Cc3c(F)cc(F)cc3F)C3CCCCC3)cc2)NC(=O)CC2(CCCC2)CC(=O)NCCCCCN1` [Compound 404], the 50% inhibitory concentration (IC50) is below 100 nM. On to `O=C1CC2(CCCC2)CC(=O)N[C@H](Cc2ccc(NC(=O)[C@@H](NC(=O)c3cccnc3)C3CCCCC3)cc2)C(=O)NCCCCCCCCCN1` [Compound 407], for which the IC50 is 100 to 1000 nM. Consider `O=C1CC2(CCCC2)CC(=O)N[C@H](Cc2ccc(NC(=O)[C@@H](NC(=O)c3cccnc3)C3CCCCC3)cc2)C(=O)NCCCCN1` [Compound 409], for which the IC50 is 100 to 1000 nM.

In the case of `O=C1CC2(CCCC2)CC(=O)N[C@H](Cc2ccc(NC(=O)[C@@H](NC(=O)Cc3ccc(F)cc3)C3CCCCC3)cc2)C(=O)NCCCCN1` [Compound 410], the concentration for half-maximal inhibition (IC50) is 100 to 1000 nM.

`O=C1CC2(CCCC2)CC(=O)N[C@H](Cc2ccc(NC(=O)[C@H](Cc3ccccc3Cl)NC(=O)Cc3ccccc3)cc2)C(=O)NCCNCCN1` [Compound 411]: the 50% inhibitory concentration (IC50) is below 100 nM. Regarding `O=C1CC2(CCCC2)CC(=O)N[C@H](Cc2ccc(NC(=O)[C@H](Cc3ccccc3Cl)NC(=O)Cc3ccc(CO)cc3)cc2)C(=O)NCCNCCN1` [Compound 412], the IC50 lay in the range of 100 to 1000 nM.

Take `O=C1CNC(=O)[C@@H](Cc2ccc(NC(=O)[C@@H](NC(=O)Cc3ccccc3)c3ccccc3)cc2)NC(=O)CC2(CCCC2)CC(=O)NCCCCCN1` [Compound 415]: the 50% inhibitory concentration (IC50) was in the range of 100 to 1000 nM.

As for `CN1CCNC(=O)CC2(CCCC2)CC(=O)N[C@H](Cc2ccc(NC(=O)[C@H](Cc3ccccc3Cl)NC(=O)Cc3ccccc3)cc2)C(=O)N[C@H](Cc2ccccc2)C(=O)N(C)CC1` [Compound 416], the IC50 was below 100 nM. In the case of `O=C1CC2(CCCC2)CC(=O)N[C@H](Cc2ccc(NC(=O)[C@@H](NC(=O)c3cccnc3)C3CCCCC3)cc2)C(=O)NCCOCCOCCN1` [Compound 417], the concentration for half-maximal inhibition (IC50) lay in the range of 100 to 1000 nM. For the molecule `O=C1CC2(CCCC2)CC(=O)N[C@H](Cc2ccc(NC(=O)[C@H](Cc3ccccc3Cl)NC(=O)c3cccnc3)cc2)C(=O)NCCCCN1` [Compound 420], the IC50 lay in the range of 100 to 1000 nM. As for `CN1CCCCCNC(=O)C(Cc2ccc(NC(=O)C(NC(=O)c3cccnc3)C3CCCCC3)cc2)NC(=O)CC2(CCCC2)CC1=O` (stereo not drawn) [Compound 421], the half-maximal inhibitory concentration (IC50) lay in the range of 1000 to 10000 nM. On to `CN1CCCCCNC(=O)CC2(CCCC2)CC(=O)NC(Cc2ccc(NC(=O)C(NC(=O)c3cccnc3)C3CCCCC3)cc2)C1=O` (stereo not drawn) [Compound 422], for which the IC50 was in the range of 1000 to 10000 nM. In the case of `O=C1CC2(CCCC2)CC(=O)OCCCCCNC(=O)[C@@H](Cc2ccc(NC(=O)[C@@H](NC(=O)c3cccnc3)C3CCCCC3)cc2)N1` [Compound 423], the IC50 fell in the range of 1000 to 10000 nM.

For `CN1CCNCCOC(=O)CC2(CCCC2)CC(=O)N(C)[C@H](Cc2ccc(NC(=O)[C@H](Cc3ccccc3Cl)NC(=O)Cc3ccccc3)cc2)C(=O)N[C@H](Cc2ccccc2)C1=O` [Compound 426], the concentration for half-maximal inhibition (IC50) is 100 to 1000 nM.

For `C[C@H]1NC(=O)[C@@H](Cc2ccc(NC(=O)[C@H](Cc3ccccc3Cl)NC(=O)c3cnc4ccccc4c3)cc2)NC(=O)CC2(CCCC2)CC(=O)NCCCCCNC1=O` [Compound 428], the IC50 is below 100 nM. Consider `C[C@H]1NC(=O)[C@@H](Cc2ccc(NC(=O)[C@H](Cc3ccccc3Cl)NC(=O)c3cncc4ccccc34)cc2)NC(=O)CC2(CCCC2)CC(=O)NCCCCCNC1=O` [Compound 429], for which the IC50 is below 100 nM.

On to `CN(C)CCOc1ccc(CC(=O)N[C@@H](Cc2ccccc2Cl)C(=O)Nc2ccc(C[C@H]3NC(=O)CC4(CCCC4)CC(=O)NCCCCCNC(=O)[C@@H](Cc4ccccc4)NC3=O)cc2)cc1` [Compound 431], for which the half-maximal inhibitory concentration (IC50) is below 100 nM. For `NCCCC[C@H]1NC(=O)[C@@H](Cc2ccc(NC(=O)[C@H](Cc3ccccc3Cl)NC(=O)Cc3ccccc3)cc2)NC(=O)CC2(CCCC2)CC(=O)NCCCCCNC1=O` [Compound 432], the IC50 is below 100 nM. Take `CN1CCNCCNC(=O)CC2(CCCC2)CC(=O)N[C@H](Cc2ccc(NC(=O)[C@H](Cc3ccccc3Cl)NC(=O)Cc3ccccc3)cc2)C(=O)N[C@H](Cc2ccccc2)C1=O` [Compound 433]: the IC50 was below 100 nM.
